Reference: patent US10143668B2, “Hydroxy-substituted amino and ammonium derivatives and their medical use” (GRI BIO, INC., priority 2011, dated 2018)
Several values for one entry are separate records, joined by “and”; a condition that tells them apart may be missing. Equal entries are not always repeated. Structures can show the parent of a compound that is named as a salt. Where two headings read alike, the source gives them in different places. Marks after values point to notes of the source that are not given here.

Assays:
RBL-2H3 cells [1] = assay: Inhibition of mast cell degranulation (β-hexosaminidase release); format: cell-based; conditions: Rattus norvegicus, RBL-2H3 cells sensitized with anti-DNP IgE, triggered with DNP-HSA
Description: Mast cells are key effector cells involved in allergic and inflammatory diseases, and the Rat Basophilic Leukemia clone 2H3 (RBL-2H3) cell line is a commonly used model of allergen dependent immune modulator release (degranulation) in mast cells. On their surface, they express the high affinity receptor for IgE (FcεRI) Upon binding of antigen-specific IgE to the receptor, cells become sensitized to the IgE specific antigen (allergen). When IgE-sensitized cells then encounter multivalent antigen, the antigen clusters IgE-FcεRI complexes and initiates a signal transduction cascade that leads to degranulation, that is, the release of inflammatory mediators, such as cytokines, eicosanoids, histamine and enzymes. The assay can be used as a screening method to identify immune-modulating compounds, in particular compounds useful in the medical management of allergic and inflammatory diseases and asthma. β-hexosaminidase was previously shown to be released with the same kinetics as histamine (Schwartz et al., J Immunology; 123:1445-1450 (1979)), thus offering a simple means to monitor degranulation. The RBL-2H3 cell line has been successfully used to identify compounds with anti-allergic activity (Choo et al. Planta Med., 69:518-522 (2003)).
Cell Culture: RBL-2H3 cells obtained from the German Collection of Microorganisms and Cell Cultures (ACC312) (Braunschweig, Germany) were maintained in 70% Minimum Essential Medium with Earle's Salts, 20% RPMI 1640 Medium, 10% FBS and 2 mM L-glutamine in 95% air/5% CO2 at 37° C. and routinely checked for mycoplasma contamination. Cells were passaged every 3-4 days; after washing cells once with 35 ml PBS cells were incubated 8 min with 5 ml 0.05% Trypsin-EDTA solution at 37° C. Cells were removed from the incubator, 15 ml culture medium was added and cells were resuspended by repeated pipetting.
Cell seeding: cells were harvested with Trypsin-EDTA as described and 50-100 μl cell suspension seeded into Costar CellBind 24 well cluster plates (no. 3337). Plates were kept for 30 min at RT under the sterile hood before being transferred to the incubator. Cells were used within one or two days after seeding.
For sensitization, cells for immediate use were sensitized 6-12 h after plating; cells to be used the following day were sensitized 26-38 h after plating. Culture plates were removed from the incubator and checked for cell growth and contamination. The medium was discarded and cells were sensitized with anti-DNP IgE (0.4 μg/ml) in 0.4 ml culture medium overnight. Following overnight sensitization, cells were washed with 0.8 ml pre-warmed TyB and 0.38 ml test compound or vehicle control (supplemented or not with 1% FBS) were added to duplicate wells. Samples were adjusted to contain 1% vehicle for test compounds dissolved in organic solvents. Cells were incubated for 1 h at 37° C. At the end of the incubation period, cells were routinely stimulated with 20 μl DNP-HSA (2 μg/ml; final concentration 0.1 μg/ml) diluted in TyB and cells were incubated for 15 min at 37° C. Alternatively, cells were stimulated with 20 μl 5 μM ionomycin (final concentration 0.25 μM) or 20 μl 5 μM thapsigargin (final concentration 0.25 μM), both in the absence or presence of 20 nM PMA (final concentration). […]
MUG substrate solution, 100 μl, were added to supernatant and lysate samples and plates were incubated 30 min at 37° C. […] Fluorescene was measured at 365 nm excitation and 440 nm emmission wavelengths. […]

RBL-2H3 cells [2] = assay: Maximum tolerated concentration (cytotoxicity by lactate dehydrogenase release); format: cell-based, rat; conditions: for MTC (maximum tolerated concentration): highest concentration not causing cytotoxicity (LDH release); for SI (safety index): ratio between MTC and IC50
Description: The safety index (SI) of a test compound is the ratio between the maximum tolerated concentration and the IC50 and is used as a measure of the relative safety of the test compound.

[3] = system: collagen type II-induced arthritis (CIA) in mice; conditions: prophylactic, 0.3 mg/kg intraperitoneally once daily
DTH response in mice = format: in vivo; conditions: 24 h after challenge
Procedure: The anti-inflammatory and anti-allergic effects of compound 1a was assessed in a mouse model of skin delayed-type hypersensitivity (DTH) reactions and compared to a vehicle control and to the reference drug, dexamethasone. DTH reactions are antigen-specific cell-mediated immune responses, driven primarily by T helper type 1 (Th1) cells, similar to the tuberculin immunization response. The immune reaction induced by an ovalbumin challenge to animals previously sensitized with ovalbumin in Complete Freund's Adjuvant, is characterized by swelling (edema) at the site of challenge, e.g. the mouse ear. Dexamethasone, an anti-inflammatory steroid, reduces cell-mediated immune responses and was employed to validate the responsiveness of the assay to pharmacological treatment.
Female BALB/cJW mice were bred at the University of Lodz, Lodz, Poland and housed in groups of 8 in makrolon cages with a 12 h light-dark cycle. Mice were given free access to food (Agropol S. j., Motycz, Poland) and water.
Sensitization: The protein antigen, ovalbumin, was reconstituted in PBS at 4 mg/ml. An ovalbumin-CFA emulsion was prepared by mixing the protein solution with the CFA suspension at a ratio of 1:1, using two Luer-lock syringes. The emulsion was tested by putting a drop of emulsion onto PBS; if the emulsion remained as a tight droplet on the PBS, the emulsion was deemed ready. Mice were sensitized by subcutaneously injecting 25 μL of emulsion into each side of the tail (100 μg ovalbumin per mouse).
Challenge: On the sixth day after sensitization, DTH was elicited by challenging animals subcutaneously (gauge 30 needle, B. Braun Melsungen, Melsungen, Germany) in the left ears with 10 μL of a 1% suspension of heat-aggregated ovalbumin (HOVA) (100 μg ovalbumin per mouse). The right ears were administered subcutaneously with PBS and served to determine the individual differences in ear thicknesses. HOVA was prepared by heating a 5% solution of ovalbumin in saline for 1 h at 80° C. with occasional swirling. After cooling to room temperature and centrifugation (400 g, 10 min at 4° C.), the pellet was washed twice with saline, resuspended at 2% in PBS and aliquots stored at −30° C. Before injection, HOVA was diluted with an equal volume of PBS and sonicated. Ear thickness was measured with a precise spring-loaded caliper (Art. No. 7309, Mitutoyo, Kawasaki, Japan) before challenge, and 24 h after challenge.
Sensitization, challenge and ear thickness measurement were performed under anesthesia (ketamine 80 mg/kg plus xylazine 8 mg/kg, intraperitoneally).
The anti-inflammatory effects of compound 1a were compared to a vehicle control (0.5% methyl cellulose solution) and to the reference drug, dexamethasone. Test compound was given at 25 or 100 mg/kg orally by gavage (Art. No. 432093, Harvard Apparatus GmbH, March-Hugstetten, Germany) 16 h and 3 h before sensitization and then twice daily with the final dose given 3 h prior to ear challenge (a total of 14 administrations). Dexamethasone was given at 0.1 or 1 mg/kg orally by gavage 3 h before sensitization and once daily with the final dose given 3 h prior to antigen challenge (a total of 7 administrations). All administrations were given in a volume of 10 mL/kg.
To account for individual variability, the increase in right ear thickness, before and 24 h after administration of PBS, was subtracted from the HOVA-induced increase in left ear thickness. […]
Mean and standard deviation (SD) were calculated from individual ear edema values. […]

[4] = system: allergic contact dermatitis response in mice; assay: Allergic contact dermatitis (TDI) model in mice, mouse ear swelling test; format: in vivo
Procedure: The anti-inflammatory and anti-allergic effects of compound 1a were assessed in a mouse model of allergic contact dermatitis, a response driven primarily by T helper type 2 (Th2) cells. […] In this model, an allergic dermatitis response is obtained by sensitizing mice to TDI and subsequently challenging them with antigen by topical administration onto the ears. A quantitative assessment of anti-inflammatory and anti-allergic effects of topically or orally administered test compounds is possible by measuring the resulting ear swelling.
Female BALB/c-mice were obtained from Charles River (Sulzfeld, Germany) at age 8 weeks. All animals were housed in groups of eight per cage at 22° C. with a 12 h light/dark-cycle. Water and a standard diet (Altromin, Lage/Lippe, Germany) were available ad libitum. All animals were acclimatized for one week before experimental procedures were commenced.
Experimental procedures for BALB/c mice housing, TDI sensitization and challenge, and measurement of ear thickness were performed as previously described (Baumer et al., J Pharm Pharmacol. 55:1107-1114 (2003)) with the following modifications. For active sensitization, 100 μL of 5% (w/v) TDI was administered to the shaved and stripped abdominal epidermis on day one, and for the next three consecutive days, 50 μL of 5% (w/v) TDI was applied. The allergic reaction was boosted 21 days later by application of 50 μL of 0.5% (w/v) TDI. For the examination of test compound effects, the left ears were used for the TDI challenge (20 μL of 0.5% in acetone) and ear thickness measured 3 h before and 24 h after challenge.
Administration time: to determine optimal time for administration treatment groups were treated orally by gavage with 100 mg/kg of compound 1a (suspended in 0.5% tylose, 10 mL/kg) 1, 4 or 16 h before topical TDI challenge. One group was treated with 100 mg/kg miltefosine orally, 16 h before challenge (based on available data for optimal administration time for miltefosine) and vehicle treated mice received tylose (10 mL/kg) orally, 4 h before challenge.
Comparison with dexamethasone: one group of mice was treated orally with compound 1a at 100 mg/kg suspended in 0.5% tylose, 4 h before topical TDI challenge. Vehicle treated mice received 0.5% tylose orally 4 h before challenge. As a positive control, dexamethasone was administered in saline solution at 1 mg/kg or 3 mg/kg, 2 h and 30 min before challenge and 1 h after challenge. The dose and dosing scheme for dexamethasone was based on previous experience showing a maximal effect in this model.
[…] The solution was applied, 2 h before topical TDI challenge by administration of 10 μl onto each of the inner and outer surfaces of the left ears. A vehicle group (n=5) was treated with propyleneglycol. As a positive control, diflorasone diacetate was administered at 0.01% (low dose) and 0.05% (high dose) in 20 μl acetone, 2 h before challenge. A basal control group was left untreated.
Mean and standard error of the mean (SEM) were calculated from individual ear edema values. Statistical evaluation was a one-way analysis of variance (ANOVA) (if the test for normal distribution was passed) or the Kruskal-Wallis one-way ANOVA on Ranks (if the normal distribution test failed). Both were followed by a post-hoc test (Dunnett's method or Dunn's test, respectively). A p<0.05 was considered to be significant.

**Q.** How did the IC50 (RBL-2H3 cells [1]) turn out when `CCCCCCCCCCCCCCN(C)CC(=O)N(C)C[C@H](O)[C@@H](O)[C@H](O)[C@H](O)CO` [Compound 1b, N-(2-(Methyl(tetradecyl)amino)acetyl)-N-methyl-D-glucamine hydrotrifluoroacetate] was run?
**A.** 4.9 µM

**Q.** What about the “MTC (maximum tolerated concentration)” value (RBL-2H3 cells [2]) of the same molecule?
**A.** 50 µM

**Q.** What about the “SI (safety index)” value (RBL-2H3 cells [2]) of the same molecule?
**A.** 10.2

**Q.** Which IC50 (RBL-2H3 cells [1]) does the source give for `CCCCCCCCCCCCN(C)CC(=O)N(C)C[C@H](O)[C@@H](O)[C@H](O)[C@H](O)CO` [Compound 1c, N-(2-(Methyl(dodecyl)amino)acetyl)-N-methyl-D-glucamine hydrotrifluoroacetate] here?
**A.** 12.3 µM

**Q.** And the “MTC (maximum tolerated concentration)” value (RBL-2H3 cells [2])?
**A.** 100 µM

**Q.** What about the “SI (safety index)” value (RBL-2H3 cells [2]) of the same molecule?
**A.** 8.1

**Q.** For `CCCCCCCCCCCCCC[N+](C)(C)CC(=O)N(C)CC(O)CO` (stereo not drawn) [Compound 1d, N-(2-(Dimethyl(tetradecyl)ammonio)acetyl)-N-methyl-2,3-dihydroxypropylamine trifluoroacetate], which IC50 (RBL-2H3 cells [1]) is on record?
**A.** 3.1 µM

**Q.** And the “MTC (maximum tolerated concentration)” value (RBL-2H3 cells [2])?
**A.** 75 µM

**Q.** What about the “SI (safety index)” value (RBL-2H3 cells [2]) of the same molecule?
**A.** 24.2

**Q.** Which “clinical signs of arthritis” value [3] does the source give for `C[C@@H]1C[C@H]2[C@@H]3CCC4=CC(=O)C=C[C@]4(C)[C@@]3(F)[C@@H](O)C[C@]2(C)[C@@]1(O)C(=O)CO` [Dexamethasone, reference compound] here?
**A.** nearly completely suppressed

**Q.** What about the “Inhibition of mouse ear swelling” value (DTH response in mice; 0.1 mg/kg orally once daily) of the same molecule?
**A.** 14%

**Q.** What about the “Inhibition of mouse ear swelling” value (DTH response in mice; 1.0 mg/kg orally once daily) of the same molecule?
**A.** 53%

**Q.** And the “Inhibition of mouse ear swelling” value ([4]; comparison with dexamethasone, 1 mg/kg oral)?
**A.** 78.6*** %

**Q.** What about the “Inhibition of mouse ear swelling” value ([4]; comparison with dexamethasone, 1 mg/kg oral, listed as dexamethasone) of the same molecule?
**A.** 78%

**Q.** And the “Inhibition of mouse ear swelling” value ([4]; comparison with dexamethasone, 3 mg/kg oral)?
**A.** 87.1*** %

**Q.** And the “Inhibition of mouse ear swelling” value ([4]; comparison with dexamethasone, 3 mg/kg oral, listed as dexamethasone)?
**A.** 87%

**Q.** How did the IC50 (RBL-2H3 cells [1]) turn out when `CCCCCCCCCCCCCCCCOP(=O)([O-])OCC[N+](C)(C)C` [Miltefosine, reference compound] was run?
**A.** 4.2 µM

**Q.** And the “MTC (maximum tolerated concentration)” value (RBL-2H3 cells [2])?
**A.** 25 µM

**Q.** And the “SI (safety index)” value (RBL-2H3 cells [2])?
**A.** 6.0

**Q.** And the “inhibitory efficacy relative to 1a at its optimal administration time of 4 h” value ([4]; 100 mg/kg oral, 16 h before challenge)?
**A.** 75%

**Q.** And the “Inhibition of mouse ear swelling” value ([4]; administration time study, 100 mg/kg oral, 16 h before TDI challenge)?
**A.** 47% and 47.3^§ %
